Drawing on ChEMBL document CHEMBL5252509, “In depth analysis of kinase cross screening data to identify chemical starting points for inhibition of the Nek family of kinases” (Medchemcomm, 2018), this text covers inhibition and % control for 38 molecules.

Assay [1] addresses T1, Serine/threonine-protein kinase Nek10 (Homo sapiens) (UniProt Q6ZWH5).
T1 sequence (whole entry): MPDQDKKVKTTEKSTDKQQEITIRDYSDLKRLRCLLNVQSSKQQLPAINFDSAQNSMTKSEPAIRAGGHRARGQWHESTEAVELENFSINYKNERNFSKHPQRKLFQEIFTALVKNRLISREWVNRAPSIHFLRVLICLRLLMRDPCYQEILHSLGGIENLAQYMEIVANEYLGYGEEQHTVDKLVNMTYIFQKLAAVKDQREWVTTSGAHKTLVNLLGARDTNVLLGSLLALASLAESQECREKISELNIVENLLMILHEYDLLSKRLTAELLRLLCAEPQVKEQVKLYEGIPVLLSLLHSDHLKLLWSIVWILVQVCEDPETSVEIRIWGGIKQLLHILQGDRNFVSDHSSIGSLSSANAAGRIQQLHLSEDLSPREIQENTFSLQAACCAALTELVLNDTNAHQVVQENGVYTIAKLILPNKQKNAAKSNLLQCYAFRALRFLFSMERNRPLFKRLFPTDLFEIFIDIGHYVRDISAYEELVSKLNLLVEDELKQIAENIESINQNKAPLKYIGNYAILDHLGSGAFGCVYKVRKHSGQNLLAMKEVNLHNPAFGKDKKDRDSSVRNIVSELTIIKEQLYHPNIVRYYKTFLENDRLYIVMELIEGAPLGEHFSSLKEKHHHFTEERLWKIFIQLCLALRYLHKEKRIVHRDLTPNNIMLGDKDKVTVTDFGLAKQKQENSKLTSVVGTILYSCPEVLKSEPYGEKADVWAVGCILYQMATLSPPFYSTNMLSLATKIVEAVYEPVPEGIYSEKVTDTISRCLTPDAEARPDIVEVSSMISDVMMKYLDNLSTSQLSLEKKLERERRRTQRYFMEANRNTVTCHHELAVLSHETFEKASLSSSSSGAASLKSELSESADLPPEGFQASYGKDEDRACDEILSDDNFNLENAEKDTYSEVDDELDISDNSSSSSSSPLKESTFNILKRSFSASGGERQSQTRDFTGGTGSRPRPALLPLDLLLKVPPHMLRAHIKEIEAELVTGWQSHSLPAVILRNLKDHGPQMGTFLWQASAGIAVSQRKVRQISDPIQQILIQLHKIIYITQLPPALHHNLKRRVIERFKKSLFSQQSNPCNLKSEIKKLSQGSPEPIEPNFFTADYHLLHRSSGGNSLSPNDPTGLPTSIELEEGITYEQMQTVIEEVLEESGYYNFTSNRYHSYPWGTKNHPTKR
Description: Inhibition of NEK10 (unknown origin) at 1 uM relative to control.

The target in assay [2] is T2, Serine/threonine-protein kinase Nek11 (Homo sapiens) (UniProt Q8NG66).
T2 sequence (whole entry): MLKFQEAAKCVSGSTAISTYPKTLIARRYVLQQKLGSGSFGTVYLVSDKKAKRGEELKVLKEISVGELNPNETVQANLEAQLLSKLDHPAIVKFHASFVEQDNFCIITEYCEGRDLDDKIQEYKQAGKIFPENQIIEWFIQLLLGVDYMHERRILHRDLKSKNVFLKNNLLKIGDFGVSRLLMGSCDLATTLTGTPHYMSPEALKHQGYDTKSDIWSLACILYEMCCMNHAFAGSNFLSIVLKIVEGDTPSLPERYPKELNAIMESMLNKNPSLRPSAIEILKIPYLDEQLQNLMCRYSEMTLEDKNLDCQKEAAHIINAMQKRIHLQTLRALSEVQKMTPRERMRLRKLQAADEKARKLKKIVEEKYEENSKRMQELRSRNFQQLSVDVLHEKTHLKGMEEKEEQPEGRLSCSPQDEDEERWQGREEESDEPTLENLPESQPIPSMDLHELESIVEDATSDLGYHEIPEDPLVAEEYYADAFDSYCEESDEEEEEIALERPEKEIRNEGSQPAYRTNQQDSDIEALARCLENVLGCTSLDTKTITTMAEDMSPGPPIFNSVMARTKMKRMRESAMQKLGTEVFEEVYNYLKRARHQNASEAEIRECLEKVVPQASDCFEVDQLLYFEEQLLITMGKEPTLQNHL
Description: Inhibition of NEK11 (unknown origin) at 1 uM relative to control.

Assay [3] addresses T3, Serine/threonine-protein kinase Nek5 (Homo sapiens) (UniProt Q6P3R8).
T3 sequence (whole entry): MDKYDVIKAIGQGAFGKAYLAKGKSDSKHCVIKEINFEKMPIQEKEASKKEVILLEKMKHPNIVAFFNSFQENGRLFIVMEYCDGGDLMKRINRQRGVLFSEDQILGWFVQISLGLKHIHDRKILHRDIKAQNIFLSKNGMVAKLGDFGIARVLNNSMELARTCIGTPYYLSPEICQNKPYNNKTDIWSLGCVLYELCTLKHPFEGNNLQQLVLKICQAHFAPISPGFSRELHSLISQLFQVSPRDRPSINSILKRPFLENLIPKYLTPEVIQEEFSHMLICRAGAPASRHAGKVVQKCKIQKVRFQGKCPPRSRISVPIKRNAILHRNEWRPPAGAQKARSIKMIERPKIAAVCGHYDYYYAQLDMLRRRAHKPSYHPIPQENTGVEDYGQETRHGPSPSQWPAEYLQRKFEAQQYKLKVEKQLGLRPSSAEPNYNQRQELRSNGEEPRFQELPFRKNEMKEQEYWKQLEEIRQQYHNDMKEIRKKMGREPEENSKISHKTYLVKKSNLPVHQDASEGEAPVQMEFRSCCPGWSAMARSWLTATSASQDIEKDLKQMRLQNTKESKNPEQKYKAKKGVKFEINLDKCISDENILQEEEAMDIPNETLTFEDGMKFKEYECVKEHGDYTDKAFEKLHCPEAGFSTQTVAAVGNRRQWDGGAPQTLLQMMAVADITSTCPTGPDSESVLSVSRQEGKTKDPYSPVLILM
Description: Inhibition of NEK5 (unknown origin) at 10 uM relative to control.

The target in assay [4] is Serine/threonine-protein kinase Nek7 (Homo sapiens) (UniProt Q8TDX7). Put plainly: Inhibition of NEK7 (unknown origin) at 10 uM relative to control.

Each structure is given as a SMILES string.

Serine/threonine-protein kinase Nek7 (Homo sapiens), sequence (Q8TDX7 whole entry, looked up): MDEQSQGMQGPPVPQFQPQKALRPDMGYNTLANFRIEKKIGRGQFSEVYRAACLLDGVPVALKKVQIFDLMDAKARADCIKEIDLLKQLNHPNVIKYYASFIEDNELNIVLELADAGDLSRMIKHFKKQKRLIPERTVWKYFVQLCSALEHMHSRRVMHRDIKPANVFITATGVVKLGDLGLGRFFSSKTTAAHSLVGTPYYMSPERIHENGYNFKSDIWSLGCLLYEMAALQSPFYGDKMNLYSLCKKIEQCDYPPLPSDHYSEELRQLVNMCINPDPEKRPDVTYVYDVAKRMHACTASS

`COc1ccc(Nc2ncc(C#N)c(Nc3ccccc3C(N)=O)n2)cc1N1CCN(C)CC1`: the inhibition (as a rule, the percentage by which the read-out fell short of the control) in assay [1] was found to be 5.9%; in assay [2], 2.5%.
On the same counts, the results for `CC(C)Oc1ccc2c(-c3ccnc(Nc4ccc(N5CCN(C)CC5)cc4)n3)cnn2n1` are 2.4% and 14%.
`Nc1ncc(-c2cccnc2)c2scc(-c3ccc4c(c3)CCN4C(=O)Cc3ccccc3)c12`: the inhibition was 14% in assay [1] and 44% in assay [2].
On the same counts, the results for `COc1cccc(C2=C(Nc3ccc(Cl)c(C(=O)O)c3)C(=O)NC2=O)c1` are 73% and 27%.
For `COc1ccc(C2=C(Nc3cccc(C(=O)O)c3)C(=O)NC2=O)cc1` the same measures were 2% and 30%.
As to `COc1cccc(C2=C(Nc3cccc(O)c3)C(=O)NC2=O)c1`, the inhibition in assay [1] was determined as 67%; in assay [2], 0%.
For `Cn1cc(-c2ccc3c(c2)CCN3C(=O)Cc2cc(F)cc(C(F)(F)F)c2)c2c(N)ncnc21` the same measures were 6% and 8%.
On the same counts, the results for `O=S(=O)(c1ccc(-c2ccnc3[nH]ccc23)cc1)N1CCCC1` are 15% and 0%.
For `Cn1cc(-c2cnc(N)c3c(-c4ccc5c(c4)CCN5C(=O)Cc4ccccc4)csc23)cn1` the same measures were 22% and 47%.
Take `Cc1ccccc1CC(=O)N1CCc2cc(-c3cn(C)c4ncnc(N)c34)ccc21`: the inhibition stood at 0% in assay [1] and 58% in assay [2].
On to `O=C1NC(=O)/C(=C/c2ccc3nccc(-c4ccncc4)c3c2)S1`, for which the values for the % control in assay [3] and in assay [4] were 100% and 88%, respectively.
For `CN(C)CCNS(=O)(=O)c1ccc(-c2ccnc3[nH]ccc23)cc1`, the inhibition in assay [1] turned out to be 17%; in assay [2] it was 0%.
In the case of `CN(C)C/C=C/C(=O)Nc1cccc(C(=O)Nc2ccc(Nc3nccc(-c4cccnc4)n3)cc2)c1`, the % control in assay [3] turned out to be 7.8%; in assay [4], 7%.
For `CN(C)C/C=C/C(=O)Nc1ccc(C(=O)Nc2cccc(Nc3nccc(-c4cccnc4)n3)c2)cc1` the same measures were 2.2% and 9.8%.
Consider `Cn1cc(-c2ccc3c(c2)CCN3C(=O)Cc2cc(F)cc(F)c2F)c2c(N)ncnc21`, for which the inhibition is 10% in assay [1] and 38% in assay [2].
Turning to `COc1cccc(CC(=O)N2CCc3cc(-c4cn(C)c5ncnc(N)c45)ccc32)c1`, the inhibition in assay [1] stood at 7%; in assay [2] it was 49%.
On the same counts, the results for `c1ccc(-c2ccnc3[nH]ccc23)cc1` are 30% and 0%.
For the molecule `Nc1nccc2scc(-c3ccc4c(c3)CCN4C(=O)Cc3ccccc3)c12`, the inhibition in assay [1] came to 9%; in assay [2], 0%.
On to `Cc1cc(NC(=O)c2cccc(NC(=O)/C=C/CN(C)C)c2)ccc1Nc1nccc(-c2cccnc2)n1`, for which the % control in assay [3] amounted to 92%; in assay [4] it was 100%.
Turning to `Cn1cc(-c2ccc3c(c2)CCN3C(=O)Cc2ccccc2Cl)c2c(N)ncnc21`, the inhibition in assay [1] and in assay [2] was 0% each time.
For `O=c1[nH]ccc2nc(N[C@@H]3CCCNC3)nc(Nc3ccc(S(=O)(=O)N4CCOCC4)cc3)c12`, the inhibition in assay [1] worked out at 4.4%; in assay [2] it was 100%.
On the same counts, the results for `NCCNS(=O)(=O)c1ccc(-c2ccnc3[nH]ccc23)cc1` are 69% and 24%.
On the same counts, the results for `Cn1cc(-c2ccc3c(c2)CCN3C(=O)Cc2cccc(C(F)(F)F)c2)c2c(N)ncnc21` are 18% and 14%.
For `COc1cccc(C2=C(Nc3cccc(Cl)c3)C(=O)NC2=O)c1` the same measures were 73% and 0%.
Regarding `CC(C)c1nc(-c2cccc(NS(=O)(=O)c3c(F)cccc3F)c2F)c(-c2ccnc(Nc3ccc(N4CCOCC4)nc3)n2)s1`, the inhibition amounted to 100% in assay [1] and 1.4% in assay [2].
Turning to `Fc1cc(-c2cc[nH]/c(=N/c3ccc(-n4cnc(N5CCOCC5)n4)cc3)n2)cc(N2CCOCC2)c1`, the figures for the % control in assay [3] and in assay [4] were 1.4% and 45%, respectively.
Regarding `Cc1ccc(CC(=O)N2CCc3cc(-c4cn(C)c5ncnc(N)c45)ccc32)cc1`, the inhibition in assay [1] was 0%; in assay [2], 59%.
For `Nc1nccc2scc(-c3ccc4c(c3)CCN4C(=O)Cc3cc(F)ccc3F)c12` the same measures were 12% and 9%.
With `COc1cc(Nc2ncc3c(C)nc(-c4cc5ccccc5[nH]4)n3n2)cc(OC)c1OC`, the inhibition was determined as 0% in assay [1] and 86% in assay [2].
With `CC(C)c1nc(-c2cccc(NS(=O)(=O)c3ccccc3)c2)c(-c2ccnc(Nc3ccc4c(c3)CN(C)CC4)n2)s1`, the inhibition was 100% in assay [1] and 2.3% in assay [2].
For `CS(=O)(=O)Nc1ccc(-c2ccnc3[nH]ccc23)cc1` the same measures were 71% and 17%.
For `CN(C)C/C=C/C(=O)Nc1cccc(C(=O)Nc2ccc(Nc3nccc(-c4c(-c5ccccc5)nn5ccccc45)n3)cc2)c1`, the % control is 98% in assay [3] and 100% in assay [4].
Turning to `Cn1cc(-c2ccc3c(c2)CCN3C(=O)Cc2cccc(F)c2)c2c(N)ncnc21`, the inhibition in assay [1] was found to be 22%; in assay [2], 8%.
As to `Cc1ccc(NC(=O)c2ccc(NC(=O)/C=C/CN(C)C)cc2)cc1Nc1nccc(-c2cccnc2)n1`, the values for the % control in assay [3] and in assay [4] were 51% and 20%, respectively.
With `Nc1ncc(-c2cn[nH]c2)c2scc(-c3ccc4c(c3)CCN4C(=O)Cc3ccccc3)c12`, the inhibition in assay [1] came out at 22%; in assay [2], 87%.
For `O=C1NC(=O)C(c2ccccc2Cl)=C1Nc1cccc(Cl)c1` the same measures were 51% and 0%.
For `Cn1cc(-c2ccc3c(c2)CCN3C(=O)Cc2cccc(Cl)c2)c2c(N)ncnc21` the same measures were 18% and 0%.
Take `CN(C)C/C=C/C(=O)Nc1cccc(C(=O)Nc2ccc(Nc3nccc(/C(C#N)=C4\Nc5ccccc5S4)n3)cc2)c1`: the % control in assay [3] and in assay [4] was 100% in each case.
